Measured values taken from the CombiSolv-Exp solvation set (Vermeire and Green 2021).

Experiment: solvent given as SMILES

CCNc1nc(Cl)nc(NC(C)(C)C)n1
Conditions | solvation free energy, 298 K [kcal/mol]
in O | -8.66

CCCCCCCCO
Conditions | solvation free energy, 298 K [kcal/mol]
in CC(C)CC(C)(C)C | -6.52
in CCC(C)=O | -8.2
in CCCCCCC | -6.38
in CCCCCCCCCCCCCCCC | -6.17
in CCCCCCCCCO | -8.45
in CCCCCCO | -8.58
in CCCCCl | -7.22
in CO | -8.03
in NC=O | -6.49
in O | -4.07

CC(C)CCO
Conditions | solvation free energy, 298 K [kcal/mol]
in Brc1ccccc1 | -5.27
in C1CCOC1 | -6.32
in CC#N | -5.58
in CC(C)O | -6.51
in CCCCCC | -4.05
in CCCCCCC | -3.96
in CCCCCCCC | -3.98
in CCCCCCCCCCO | -6.18
in CCCCCCCCO | -6.08
in CCCCOC(C)=O | -5.78
in CO | -6.77
in Cc1ccc(C)cc1 | -4.93
in Cc1cccc(C)c1 | -4.93
in Cc1ccccc1C | -4.94
in Clc1ccccc1 | -5.13
in O | -4.41
in [2H]O[2H] | -4.43

C#CCCCC
Conditions | solvation free energy, 298 K [kcal/mol]
in C1CCC2CCCCC2C1 | -3.68
in C1CCC(C2CCCCC2)CC1 | -3.65
in CN1CCCC1=O | -4.11
in CN(C)C=O | -3.94
in CS(C)=O | -3.55
in N#CCCCCC#N | -3.32
in NCCO | -2.4
in O | 0.29
in O=Cc1ccco1 | -3.57
in OCc1ccco1 | -3.31
in c1ccc2c(c1)CCCC2 | -3.99
in c1ccc(C2CCCCC2)cc1 | -3.88

CCCCN
Conditions | solvation free energy, 298 K [kcal/mol]
in C1COCCO1 | -4.48
in CCCCCCCC | -3.44
in CCCCCCCCCC | -3.4
in CCCCCCCCCCCCCCCC | -3.5
in CCCCOCCCC | -3.66
in O | -4.23

C=C(c1ccccc1)c1ccccc1
Conditions | solvation free energy, 298 K [kcal/mol]
in O | -2.78

CCOC(=O)CCC(=O)OCC
Conditions | solvation free energy, 298 K [kcal/mol]
in O | -5.71

c1ccc2c(c1)ccc1ccccc12
Conditions | solvation free energy, 298 K [kcal/mol]
in C1CCOC1 | -11.5
in C1COCCO1 | -11.3
in CC(=O)N(C)C | -11.4
in CC(C)(C)O | -9.55
in CC(C)=O | -11.3
in CC(C)CC(C)(C)C | -9.75
in CC(C)CC(C)O | -9.7
in CC(C)CCO | -9.73
in CC(C)CO | -9.56
in CC(C)O | -9.64
in CCC(C)(C)O | -9.84
in CCC(C)O | -9.64
in CCCC(C)CO | -9.72
in CCCC(C)O | -9.79
in CCCCC(CC)CO | -9.87
in CCCCCC | -10
in CCCCCCC | -10.1
in CCCCCCCC | -10.1
in CCCCCCCCC=CCCCCCCCC(=O)OCC(COC(=O)CCCCCCCC=CCCCCCCCC)OC(=O)CCCCCCCC=CCCCCCCCC | -10.6
in CCCCCCCCCC | -10.1
in CCCCCCCCO | -10.3
in CCCCCCCO | -10.1
in CCCCCO | -10
in CCCCO | -9.89
in CCCCOC(C)=O | -11
in CCCCOCCCC | -10.5
in CCCO | -9.96
in CCO | -10
in CCOC(C)=O | -11.1
in CN1CCCC1=O | -11.5
in CO | -9.88
in COC(C)(C)C | -10.7
in COC(C)=O | -11.1
in ClC(Cl)(Cl)Cl | -11
in O | -3.8
in O=C1CCCCC1 | -11.4
